Reference: ChEMBL document CHEMBL4038347, “Converting Teixobactin into a Cationic Antimicrobial Peptide (AMP)” (2017)
Converted amounts (≈) assume the structure as drawn. The source made the active and inactive calls. The rule behind the calls is not given here.

Legend:
Assay type in all cases: functional
Staphylococcus aureus = test: Antibacterial activity against Staphylococcus aureus ATCC 29213 after 24 hrs by broth microdilution method
Bacillus subtilis = test: Antibacterial activity against Bacillus subtilis ATCC 6051 after 24 hrs by broth microdilution method; details: ATCC 6051, 24 h
Escherichia coli = test: Antibacterial activity against Escherichia coli ATCC 25922 after 24 hrs by broth microdilution method
Pseudomonas aeruginosa = test: Antibacterial activity against Pseudomonas aeruginosa ATCC 27853 after 24 hrs by broth microdilution method

Row | MIC (Staphylococcus aureus; ATCC 29213, 24 h) | MIC (Bacillus subtilis) | MIC (Escherichia coli; ATCC 25922, 24 h) | MIC (Pseudomonas aeruginosa; ATCC 27853, 24 h) | MIC (Staphylococcus aureus) | MIC (Escherichia coli) | MIC (Pseudomonas aeruginosa) | Compound
1 | 32 µg/mL (≈ 24.9 µM) | 4 µg/mL (≈ 3.11 µM) | 64 µg/mL (≈ 49.8 µM) | 64 µg/mL (≈ 49.8 µM) |  |  |  | CC[C@H](C)[C@H](NC(=O)[C@@H](Cc1ccccc1)NC)C(=O)N[C@@H](CCCCN)C(=O)N[C@H](CCCCN)C(=O)N[C@@H](C(=O)N[C@H](C(=O)N[C@@H](CO)C(=O)N[C@H]1C(=O)N[C@@H](C)C(=O)N[C@@H](CCCNC(=N)N)C(=O)N[C@@H]([C@@H](C)CC)C(=O)O[C@H]1C)[C@@H](C)CC)[C@@H](C)CC
2 | 32 µg/mL (≈ 26 µM) | 8 µg/mL (≈ 6.5 µM) | 128 µg/mL (≈ 104 µM) | 128 µg/mL (≈ 104 µM) |  |  |  | CC[C@H](C)[C@H](NC(=O)[C@@H](Cc1ccccc1)NC)C(=O)N[C@@H](CO)C(=O)N[C@H](CCC(N)=O)C(=O)N[C@@H](C(=O)N[C@H](C(=O)N[C@@H](CN)C(=O)N[C@H]1C(=O)N[C@@H](CN)C(=O)N[C@@H](CCCCN)C(=O)N[C@@H]([C@@H](C)CC)C(=O)O[C@H]1C)[C@@H](C)CC)[C@@H](C)CC
3 | 4 µg/mL (≈ 3.04 µM) | 1 µg/mL (≈ 0.761 µM) | 32 µg/mL (≈ 24.3 µM) | 128 µg/mL (≈ 97.4 µM) |  |  |  | CC[C@H](C)[C@H](NC(=O)[C@@H](Cc1ccccc1)NC)C(=O)N[C@@H](CCCCN)C(=O)N[C@H](CCC(N)=O)C(=O)N[C@@H](C(=O)N[C@H](C(=O)N[C@@H](CO)C(=O)N[C@H]1C(=O)N[C@@H](CCCCN)C(=O)N[C@@H](CCCCN)C(=O)N[C@@H]([C@@H](C)CC)C(=O)O[C@H]1C)[C@@H](C)CC)[C@@H](C)CC (stereo in doubt)
4 | 256 µg/mL (≈ 189 µM) | 8 µg/mL (≈ 5.9 µM) | 128 µg/mL (≈ 94.4 µM) | 256 µg/mL (≈ 189 µM) |  |  |  | CC[C@H](C)[C@H](NC(=O)[C@@H](Cc1ccccc1)NC)C(=O)N[C@@H](CCCCN)C(=O)N[C@H](CCC(N)=O)C(=O)N[C@@H](C(=O)N[C@H](C(=O)N[C@@H](CCCCN)C(=O)N[C@H]1C(=O)N[C@@H](CCCCN)C(=O)N[C@@H](CCCCN)C(=O)N[C@@H]([C@@H](C)CC)C(=O)O[C@H]1C)[C@@H](C)CC)[C@@H](C)CC
5 | 16 µg/mL (≈ 13.5 µM) | 4 µg/mL (≈ 3.37 µM) | 64 µg/mL (≈ 53.9 µM) | 32 µg/mL (≈ 26.9 µM) |  |  |  | CC[C@H](C)[C@H](NC(=O)[C@@H](Cc1ccccc1)NC)C(=O)N[C@@H](CN)C(=O)N[C@H](CN)C(=O)N[C@@H](C(=O)N[C@H](C(=O)N[C@@H](CO)C(=O)N[C@H]1C(=O)N[C@@H](CN)C(=O)N[C@@H](CCCCN)C(=O)N[C@@H]([C@@H](C)CC)C(=O)O[C@H]1C)[C@@H](C)CC)[C@@H](C)CC
6 |  | 16 µg/mL (≈ 12.9 µM) | 128 µg/mL (≈ 103 µM) | 128 µg/mL (≈ 103 µM) | inactive |  |  | CC[C@H](C)[C@H](NC(=O)[C@@H](Cc1ccccc1)NC)C(=O)N[C@@H](CO)C(=O)N[C@H](CCCCN)C(=O)N[C@@H](C(=O)N[C@H](C(=O)N[C@@H](CCCCN)C(=O)N[C@H]1C(=O)N[C@@H](C)C(=O)N[C@@H](CCCN)C(=O)N[C@@H]([C@@H](C)CC)C(=O)O[C@H]1C)[C@@H](C)CC)[C@@H](C)CC
7 | 64 µg/mL (≈ 53.9 µM) | 16 µg/mL (≈ 13.5 µM) | 64 µg/mL (≈ 53.9 µM) | 64 µg/mL (≈ 53.9 µM) |  |  |  | CC[C@H](C)[C@H](NC(=O)[C@@H](Cc1ccccc1)NC)C(=O)N[C@@H](CO)C(=O)N[C@H](CN)C(=O)N[C@@H](C(=O)N[C@H](C(=O)N[C@@H](CN)C(=O)N[C@H]1C(=O)N[C@@H](CN)C(=O)N[C@@H](CCCCN)C(=O)N[C@@H]([C@@H](C)CC)C(=O)O[C@H]1C)[C@@H](C)CC)[C@@H](C)CC
8 | 64 µg/mL (≈ 49.7 µM) | 4 µg/mL (≈ 3.11 µM) |  |  |  | inactive | inactive | CC[C@H](C)[C@H](NC(=O)[C@@H](Cc1ccccc1)NC)C(=O)N[C@@H](CO)C(=O)N[C@H](CCC(N)=O)C(=O)N[C@@H](C(=O)N[C@H](C(=O)N[C@@H](CO)C(=O)N[C@H]1C(=O)N[C@@H](C)C(=O)N[C@@H](CCN=C(N(C)C)N(C)C)C(=O)N[C@@H]([C@@H](C)CC)C(=O)O[C@H]1C)[C@@H](C)CC)[C@@H](C)CC
9 | 128 µg/mL (≈ 97.4 µM) | 8 µg/mL (≈ 6.09 µM) | 128 µg/mL (≈ 97.4 µM) | 256 µg/mL (≈ 195 µM) |  |  |  | CC[C@H](C)[C@H](NC(=O)[C@@H](Cc1ccccc1)NC)C(=O)N[C@@H](CO)C(=O)N[C@H](CCC(N)=O)C(=O)N[C@@H](C(=O)N[C@H](C(=O)N[C@@H](CCCCN)C(=O)N[C@H]1C(=O)N[C@@H](CCCCN)C(=O)N[C@@H](CCCCN)C(=O)N[C@@H]([C@@H](C)CC)C(=O)O[C@H]1C)[C@@H](C)CC)[C@@H](C)CC
